This note sets out measurements from patent US7256206B2, “Bicyclic compounds and compositions” (IRM LLC, priority 2003, dated 2007).

In one data set the target is T1, human EDG-1 (Homo sapiens, UniProt P21453).
T1 construct: c-myc (N); expressed in transfected cells; membrane protein suspensions
Kind of data set: EDG-1 (S1P1) GTP [γ-35S] binding assay (SPA). Type of data set: biochemical. Conditions: for EC50: GTP [γ-35S] binding, CHO membranes. As to the method: (§1) A. In vitro: a Scintillation Proximity Assay (SPA) for Measuring GTP [γ-^35S] Binding to Membranes Prepared from CHO Cells Expressing Human EDG/S1P Receptors
EDG-1 (S1P1) GTP [γ-^35S] binding assay: Membrane protein suspensions are prepared from CHO cell clones stably expressing a human EDG-1 N-terminal c-myc tag. Solutions of test compounds ranging from 10 mM to 0.01 mM are prepared in DMSO/50 mM HCl and then diluted into assay buffer (20 mM HEPES, pH7.4, 100 mM NaCl, 10 mM MgCl2, 0.1% fat free BSA). Assay buffer containing […] is mixed with wheat germ agglutinin-coated SPA-beads (1 mg/well) followed by the addition of human EDG-1 membrane protein suspension (10 μg/well) and test compound. The bead/membrane/compound assay components are then mixed for 10–15 minutes on a shaker at room temperature. GTP [γ-^35S] (200 pM) and bead/membrane/compound assay mixture are added to individual wells of a 96 well Optiplate™ (final volume 225 μl/well), sealed and incubated at room temperature for 110 to 120 minutes under constant shaking. After centrifugation (2000 rpm, 10 minutes) luminescence is measured with a TopCount™ instrument.
(§2) EC50 values are obtained by fitting the GTP [γ-^35S] binding curves (raw data) with the dose response curve-fitting tool of ORIGIN V. 6.1. Basal binding (no compound) and the highest stimulation of GTP [γ-^35S] binding achieved by an agonist are used as the fitting range. Seven different concentrations are used to generate a concentration response curve (using two or three data points per concentration).

Another data set addresses T2, EDG-3 (Homo sapiens, UniProt Q99500).
T2 construct: c-myc (print says 'tagged or untagged'; not resolved for this receptor) (C); expressed in transfected cells; membranes
Kind of data set: EDG-3 GTP [γ-35S] binding assay. Conditions: CHO membranes. It is filed as biochemical.
From the text: as §1, §2
(§3) Concentrations of EDG receptor expressing membranes range between 13–19 μg per well.

A further data set concerns the target T3, EDG-5 (Homo sapiens, UniProt O95136).
T3 construct: c-myc (print says 'tagged or untagged'; not resolved for this receptor) (C); expressed in transfected cells; membranes
Kind of data set: EDG-5 GTP [γ-35S] binding assay. Type of data set: biochemical. Conditions: CHO membranes.
From the text: as §1, §2, §3

The next data set addresses T4, EDG-6 (Homo sapiens, UniProt O95977).
T4 construct: c-myc (print says 'tagged or untagged'; not resolved for this receptor) (C); expressed in transfected cells; membranes
T4 sequence (O95977 1-384): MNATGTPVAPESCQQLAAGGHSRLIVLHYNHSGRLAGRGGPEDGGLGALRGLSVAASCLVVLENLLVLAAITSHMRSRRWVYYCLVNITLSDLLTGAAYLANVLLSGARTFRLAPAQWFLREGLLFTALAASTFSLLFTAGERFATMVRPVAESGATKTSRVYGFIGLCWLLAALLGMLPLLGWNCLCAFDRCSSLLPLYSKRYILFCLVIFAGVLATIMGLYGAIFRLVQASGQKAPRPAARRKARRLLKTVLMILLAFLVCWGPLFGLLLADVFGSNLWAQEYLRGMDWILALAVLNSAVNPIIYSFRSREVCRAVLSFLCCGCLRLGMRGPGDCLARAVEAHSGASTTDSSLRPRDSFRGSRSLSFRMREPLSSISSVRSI
Kind of data set: EDG-6 GTP [γ-35S] binding assay. It is filed as biochemical. Conditions: CHO membranes.
From the text: as §1, §2, §3

The next data set addresses T5, EDG-8 (Homo sapiens, UniProt Q9H228).
T5 construct: c-myc (print says 'tagged or untagged'; not resolved for this receptor) (C); expressed in transfected cells; membranes
Kind of data set: EDG-8 GTP [γ-35S] binding assay (RH7777 membranes). Type of data set: biochemical.

A further data set deals with circulating lymphocytes. Kind of data set: Measurement of blood lymphocyte depletion. Type of data set: in vivo, Mice (C57bl/6 male). Conditions: mice, blood collected 18 hours after administration, dose for 50% blood lymphocyte depletion; for ED50: Mus musculus, Lymphocyte, ip, 18 h. The protocol: (§4) C. In Vivo: Screening Assays for Measurement of Blood Lymphocyte Depletion and Assessment of Heart Effect
Measurement of circulating lymphocytes: Compounds are dissolved in DMSO and further diluted with deionized water. Mice (C57bl/6 male, 6–10 week-old) are administered 20 μg of compound (diluted in 200 μl water, 4% DMSO) via intra-peritoneal (IP) injection under short isoflurane anesthesia. Water (200 μl), 4% DMSO, and FTY720 (10 μg) are included as negative and positive controls, respectively.
Blood is collected from the retro-orbital sinus 18 hours after drug administration under short isoflurane anesthesia. Whole blood samples are subjected to hematology analysis. Peripheral lymphocyte counts are determined using an automated analyzer. Subpopulations of peripheral blood lymphocytes are stained by fluorochrome-conjugated specific antibodies and analyzed using a fluorescent activating cell sorter (Facscalibur). Two mice are used to assess the lymphocyte depletion activity of each compound screened. The result is an ED50, which is defined as the effective dose required displaying 50% of blood lymphocyte depletion.

Data set [1] in a line: Assessment of heart effect (AnonyMOUSE ECG screening). Type of data set: in vivo, mice (C57bl/6 male). Conditions: ECG before and after compound, 90 μg IP. As to the method: as §4
Assessment of Heart Effect: The effects of compounds on cardiac function are monitored using the AnonyMOUSE ECG screening system. Electrocardiograms are recorded in conscious mice (C57bl/6 male, 6–10 week-old) before and after compound administration. ECG signals are then processed and analyzed using the e-MOUSE software. 90 μg of compound further diluted in 200 μl water, 15% DMSO are injected IP. Four mice are used to assess the heart effect of each compound.

SMILES strings stand for the structures. A value given as a limit tells only on which side of the number the result lay.

T2 sequence (Q99500 whole entry): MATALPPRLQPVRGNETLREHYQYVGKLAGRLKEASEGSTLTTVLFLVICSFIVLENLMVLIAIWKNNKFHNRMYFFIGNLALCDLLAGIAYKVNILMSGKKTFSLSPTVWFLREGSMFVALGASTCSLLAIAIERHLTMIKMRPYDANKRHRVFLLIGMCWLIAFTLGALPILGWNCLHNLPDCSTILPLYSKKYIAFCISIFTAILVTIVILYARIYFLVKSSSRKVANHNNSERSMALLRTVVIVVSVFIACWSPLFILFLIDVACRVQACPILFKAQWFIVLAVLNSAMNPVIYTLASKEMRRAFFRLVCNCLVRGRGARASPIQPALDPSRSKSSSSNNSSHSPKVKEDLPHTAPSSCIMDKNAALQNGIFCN
T5 sequence (Q9H228 whole entry): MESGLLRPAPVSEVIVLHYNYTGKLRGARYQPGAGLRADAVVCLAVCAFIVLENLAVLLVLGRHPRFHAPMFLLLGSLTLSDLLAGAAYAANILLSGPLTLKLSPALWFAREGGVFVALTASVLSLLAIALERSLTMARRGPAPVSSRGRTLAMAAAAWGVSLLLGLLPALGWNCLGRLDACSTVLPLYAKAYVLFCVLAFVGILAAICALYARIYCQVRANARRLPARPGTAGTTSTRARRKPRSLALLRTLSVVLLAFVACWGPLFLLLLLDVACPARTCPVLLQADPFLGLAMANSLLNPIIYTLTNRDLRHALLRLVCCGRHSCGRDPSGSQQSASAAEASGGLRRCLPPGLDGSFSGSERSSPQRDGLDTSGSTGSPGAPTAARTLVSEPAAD
T1 sequence (P21453 whole entry): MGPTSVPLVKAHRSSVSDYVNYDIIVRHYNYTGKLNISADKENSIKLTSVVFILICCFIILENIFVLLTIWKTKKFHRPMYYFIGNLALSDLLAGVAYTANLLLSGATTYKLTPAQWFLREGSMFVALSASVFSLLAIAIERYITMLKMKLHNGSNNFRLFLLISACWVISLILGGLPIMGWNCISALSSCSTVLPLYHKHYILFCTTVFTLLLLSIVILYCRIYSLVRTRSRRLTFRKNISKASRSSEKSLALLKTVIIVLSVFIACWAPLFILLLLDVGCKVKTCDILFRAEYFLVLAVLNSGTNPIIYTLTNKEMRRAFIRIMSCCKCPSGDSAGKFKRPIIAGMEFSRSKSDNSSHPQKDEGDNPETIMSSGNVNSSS
T3 sequence (O95136 whole entry): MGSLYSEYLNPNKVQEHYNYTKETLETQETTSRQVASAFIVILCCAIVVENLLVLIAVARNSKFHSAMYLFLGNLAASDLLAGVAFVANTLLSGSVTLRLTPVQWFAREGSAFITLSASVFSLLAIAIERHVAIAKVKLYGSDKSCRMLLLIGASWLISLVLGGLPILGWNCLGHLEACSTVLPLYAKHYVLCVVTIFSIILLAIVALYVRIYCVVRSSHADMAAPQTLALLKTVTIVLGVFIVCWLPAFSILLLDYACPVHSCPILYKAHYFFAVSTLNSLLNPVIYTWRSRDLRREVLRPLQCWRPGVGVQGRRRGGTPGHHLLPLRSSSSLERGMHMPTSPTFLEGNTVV

The term EC50 denotes the concentration that produces a half-maximal response. A higher EC50 goes with a less potent agent. Broadly, the ED50 is the dose at which the effect has come halfway, by size or by number of responders. Low readings indicate greater potency, high ones weaker potency. Consider `C/C(=N\OCc1ccc(-c2ccsc2)cc1)c1ccc(CCC(N)(CO)COP(=O)(O)O)cc1` (stereo not drawn) [Compound 9], for which the EC50 on human EDG-1 is 0.79 nM; at EDG-3, > 10000 nM; on EDG-5, > 10000 nM; on EDG-6, 4400 nM; at EDG-8, > 10000 nM. In the data set with circulating lymphocytes, the ED50 stood at 0.08 mg/kg. In the data set with circulating lymphocytes (IP), the “Lymphocyte Depletion ED50” value is “ED50 ~0.08 mg/kg”. Moreover, in data set [1], the “Heart effect in conscious mice” value is on record as “clean”.

As for `C/C(=N\OCc1ccc(-c2ccccc2)cc1)c1ccc(CCC(N)(CO)COP(=O)(O)O)cc1` (stereo not drawn), the concentration for a half-maximal effect (EC50) is 0.86 nM at human EDG-1; > 10000 nM at EDG-3; > 10000 nM at EDG-5; 168 nM on EDG-6; > 10000 nM at EDG-8. The ED50 with circulating lymphocytes was ~0.1 mg/kg. In addition, the “Heart effect in conscious mice” value in data set [1] is reported as “clean”.

`C/C(=N\OCc1ccc(-c2cccs2)cc1)c1ccc(CCC(N)(CO)COP(=O)(O)O)cc1` (stereo not drawn) [Compound 10, phosphoric acid mono-(2-amino-2-hydroxymethyl-4-{4-[1-(4-thiophen-2-yl-benzyloxy-imino)-ethyl]-phenyl}-butyl)ester]: at human EDG-1 (GTP [γ-35S] binding assays), the “selectivity for EDG-1 compared to EDG-3, EDG-5, EDG-6 and EDG-8” value is listed as “at least 1000 fold”. Moreover, the EC50 at human EDG-1 is 1.15 nM; on EDG-3, > 10000 nM; on EDG-5 it was > 10000 nM; at EDG-6 it was > 10000 nM; at EDG-8 it was > 10000 nM. In addition, in the data set with circulating lymphocytes, the median effective dose (ED50) is ~0.2 mg/kg. In addition, in data set [1], the “Heart effect in conscious mice” value is “clean”.

As for `C/C(=N\OCc1ccc(-c2cccc(C(F)(F)F)c2)cc1)c1ccc(CCC(N)(CO)COP(=O)(O)O)cc1` (stereo not drawn), the EC50 on human EDG-1 was 15.7 nM; at EDG-3 it was 3.5 nM; on EDG-5 it was > 10000 nM; on EDG-6 it was 1240 nM; on EDG-8, 5.8 nM. Besides, the 50% effective dose (ED50) in the data set on circulating lymphocytes is < 1 mg/kg. In addition, in data set [1], the “Heart effect in conscious mice” value is listed as “clean”.
